Measured values reported in patent US10421755B2, “Salts of aza-bicyclic di-aryl ethers and methods to make them or their precursors” (Novartis AG, priority 2011, dated 2019).
Several values for one entry are separate records, joined by “and”; a condition that tells them apart may be missing. Equal values may be shown once.

Columns and labels:
[1] = Oral bioavailability in dogs; assay type: in vivo, beagle dogs; conditions: 1.4 μmol/kg p.o.
Protocol: Assay: The compound was given to N=3 male beagle dogs in tritiated form:
The concentration of the compound in blood was determined by LC-RID. The procedure involved the addition of 5 μg of the compound as internal standard (200 μL of solution containing 25 μg/mL of the compound) to 1 mL of blood. After further addition of 1 mL of water, 0.1 mL of buffer pH 9 and 4 mL of tert-butylmethylether, the samples were shaken for 30 min and centrifuged (4000 g for 10 min at 22° C.). The organic phase was transferred into a tube and evaporated in a Speedvac. The residue was reconstituted in 250 μL of mobile phase-water (80:20 v/v) followed by 75 μL of n-hexane and transferred into an autosampler vial. After centrifugation (13,000 g for 2 min at 22° C.), the hexane layer was pipetted off and discarded, 200 μL of the remainder was injected onto an RP18 column (Waters XTerra, 5 μm, 3.9×150 mm at 40° C.) to separate the compound from potential metabolites and endogenous compounds. The mobile phase of ammonium acetate (10 mM: 0.1% v/v TFA-acetonitrile, 58:42 v/v) was used at a flow rate of 1.0 mL/min. The effluent was monitored by a UV-detector set at 261 nm. The peak corresponding to the unchanged compound was collected in a polyethylene vial by a fraction collector (SuperFrac, Pharmacia LKB) and analyzed for radioactivity. The concentration of the compound in each sample was calculated from the ratio of the amount of radioactivity in the eluate fraction to the area of the ultraviolet absorbance of the non-radiolabeled the compound, that was used as the internal standard.

[2] = Pharmacokinetics in rats after oral administration; assay type: in vivo, Wistar rats; conditions: 10 mg/kg oral
Protocol: If a salt forming agent is used (e.g. fumarate), a corresponding higher amount of the salt will be used to achieve the intended dosing.
Both compounds were dissolved in Klucel™ (0.5% in water) and were orally administered by gavage (5 ml/kg) to conscious rats (n=8, cross-over design).
K3-EDTA blood (˜0.2 ml) was collected by puncture of a sublingual vein under light isoflurane anesthesia at the following time points: 0.25, 0.5, 1, 2, 3, 4, 6, 8, 24 h post dose. Immediately after sampling, blood samples were put on ice and were processed to plasma by centrifugation at 4° C. within 15 min after sampling (1000 g, 10 min, 4° C.) to obtain ˜100 μl plasma/sample. All plasma samples were stored at −80° C. until analysis. Since the PK study was performed in a cross-over design, a recovery period of approximately 2 weeks took place before the next treatment/blood sampling was performed.
The determination of compounds in plasma was done by LC-MS/MS using electrospray ionization.

[3] = Hygroscopicity (moisture gain at relative humidity); assay type: physicochemical; parameters: Hygroscopy @ 85% RH: unit not given here
[4] = Loss on drying / initial water content; assay type: physicochemical; parameters: Initial water content: unit not given here
[5] = Stability in buffer solutions and in solid state; assay type: physicochemical
[6] = Decomposition temperature; assay type: physicochemical; parameters: unit not given here; conditions: comparison table, Example 7
[7] = Known multiple solid forms; assay type: physicochemical; conditions: comparison table, Example 7
[8] = Particle size measurements by Fraunhofer light diffraction; assay type: physicochemical; conditions: N=8
Protocol: Mean particle sizes, X90 and X10 are typically measured by Fraunhofer light diffraction.
To about 0.5 g of test substance add some drops of the dispersing aid (1% Octastat 5000 (Octel Corp.) in white spirit (Sangajol, Schweizerhall Chemie)). Mix intensively on a vortex mixer, in order to wet the substance thoroughly and to form a smooth and homogeneous paste. Dilute the paste with white spirit to a final volume of 3-6 ml and mix the dispersion again. Determine the cumulative volume distribution using a laser diffraction instrument, e.g. determine the particle sizes at the undersize values of 10%, 50% and 90% (x10, x50, x90). Measuring device: Sympatec HELOS (Sympatec GmbH; focal length: 500 mm, optical concentration≥5%, duration of measurement: 40 sec).
Dispersion device: Suspension cell (QUIXEL, Sympatec GmbH).

[9] = Stability of the active ingredient in tablets; assay type: physicochemical; conditions: tablets where only certain lubricants are used
Protocol: It is particularly important that the active ingredient remains chemically stable over a potential long shelf time. When assessing storage stability, relative amounts of individual degradation products compared to the total amount of active ingredient are taken into consideration. Individual degradation products should all be present in low relative amounts to ensure that no single product can reach a non-acceptable level, e.g. when the active ingredient is administered in high doses.

[10] = male Wistar rats (n=8), mean (text: ± SD)
[11] = male Wistar rats, individual rats 01-08, listed as mono-fumarate, 10 mg/kg

SMILES: Cc1ccc(-c2ccc(O[C@H]3CN4CCC3CC4)cn2)cc1.O=C(O)/C=C/C(=O)O [Compound B, (R)-3-(6-(4-methylphenyl)-pyridin-3-yloxy)-1-aza-bicyclo[2.2.2]octane hydrogenfumarate]
- Plasma (pmoles/ml ± SD) ([1]; 0.25 hour): 14.7 ± 1.1 pmol/mL
- Plasma (pmoles/ml ± SD) ([1]; 0.5 hour): 49.4 ± 21.9 pmol/mL
- Plasma (pmoles/ml ± SD) ([1]; 1 hour): 67.6 ± 22.6 pmol/mL
- Plasma (pmoles/ml ± SD) ([1]; 2 hour): 75.2 ± 36.8 pmol/mL
- Plasma (pmoles/ml ± SD) ([1]; 4 hour): 27.5 ± 13.3 pmol/mL
- Plasma (pmoles/ml ± SD) ([1]; 8 hour): 8.1 ± 3.0 pmol/mL
- Plasma (pmoles/ml ± SD) ([1]; 24 hour): 0.8 ± 0.7 pmol/mL
- Concentration of free form in plasma, Mean All ([2]; male Wistar rats (n=8), 0.25 h, mean): 149 ng/mL
- Concentration of free form in plasma, Mean All ([2]; male Wistar rats (n=8), 0.5 h, mean): 132 ng/mL
- Concentration of free form in plasma, Mean All ([2]; male Wistar rats (n=8), 1 h, mean): 77.4 ng/mL
- Concentration of free form in plasma, Mean All ([2]; male Wistar rats (n=8), 2 h, mean): 38.9 ng/mL
- Concentration of free form in plasma, Mean All ([2]; male Wistar rats (n=8), 3 h, mean): 19.5 ng/mL
- Concentration of free form in plasma, Mean All ([2]; male Wistar rats (n=8), 4 h, mean): 10.6 ng/mL
- Concentration of free form in plasma, Mean All ([2]; male Wistar rats (n=8), 6 h, mean): 5.10 ng/mL
- Concentration of free form in plasma, Mean All ([2]; male Wistar rats (n=8), 8 h, mean): 2.54 ng/mL
- Concentration of free form in plasma, Mean All ([2]; male Wistar rats (n=8), 24 h, mean): 0.320 ng/mL
- Tmax (h), all rats ([2]; male Wistar rats (n=8), Median [range], listed as mono-fumarate): 0.25 [0.25-0.50]^a h
- Cmax/Dose (ng/mL)/(mg/kg), Mean All ([2]; male Wistar rats (n=8), mean): 16.5 (ng/mL)/(mg/kg)
- AUClast (h · ng/mL), Mean All [2, 10]: 249 ± 42 ng·h/mL
- Cmax (ng/mL), Mean All [2, 10]: 161 ± 53 ng/mL
- Concentration of free form in plasma ([2]; male Wistar rats, 0.25 h, individual rats 01-08): 89.0 ng/mL
- Concentration of free form in plasma ([2]; male Wistar rats, 0.25 h, individual rats 01-08, listed as mono-fumarate, 10 mg/kg): 167 ng/mL and 162 ng/mL and 77.8 ng/mL and 242 ng/mL and 204 ng/mL and 93.3 ng/mL and 153 ng/mL
- Concentration of free form in plasma ([2]; male Wistar rats, 0.5 h, individual rats 01-08): 130 ng/mL
- Concentration of free form in plasma ([2]; male Wistar rats, 0.5 h, individual rats 01-08, listed as mono-fumarate, 10 mg/kg): 104 ng/mL and 78.4 ng/mL and 99.7 ng/mL and 143 ng/mL and 179 ng/mL and 184 ng/mL and 138 ng/mL
- Concentration of free form in plasma ([2]; male Wistar rats, 1 h, individual rats 01-08, listed as mono-fumarate, 10 mg/kg): 67.1 ng/mL and 88.8 ng/mL and 41.3 ng/mL and 62.8 ng/mL and 83.2 ng/mL and 80.8 ng/mL and 101 ng/mL and 94.2 ng/mL
- Concentration of free form in plasma ([2]; male Wistar rats, 2 h, individual rats 01-08, listed as mono-fumarate, 10 mg/kg): 27.4 ng/mL and 39.2 ng/mL and 37.8 ng/mL and 24.6 ng/mL and 47.1 ng/mL and 37.6 ng/mL and 54.8 ng/mL and 42.6 ng/mL
- Concentration of free form in plasma ([2]; male Wistar rats, 3 h, individual rats 01-08, listed as mono-fumarate, 10 mg/kg): 12.4 ng/mL and 17.7 ng/mL and 25.3 ng/mL and 11.7 ng/mL and 19.6 ng/mL and 20.6 ng/mL and 25.1 ng/mL and 23.2 ng/mL
- Concentration of free form in plasma ([2]; male Wistar rats, 4 h, individual rats 01-08, listed as mono-fumarate, 10 mg/kg): 9.06 ng/mL and 10.6 ng/mL and 13.3 ng/mL and 5.90 ng/mL and 9.71 ng/mL and 11.8 ng/mL and 13.0 ng/mL and 11.1 ng/mL
- Concentration of free form in plasma ([2]; male Wistar rats, 6 h, individual rats 01-08, listed as mono-fumarate, 10 mg/kg): 7.49 ng/mL and 3.47 ng/mL and 7.63 ng/mL and 5.79 ng/mL and 4.29 ng/mL and 4.24 ng/mL and 4.05 ng/mL and 3.87 ng/mL
- Concentration of free form in plasma ([2]; male Wistar rats, 8 h, individual rats 01-08, listed as mono-fumarate, 10 mg/kg): 2.91 ng/mL and 2.35 ng/mL and 3.62 ng/mL and 2.62 ng/mL and 2.46 ng/mL and 1.94 ng/mL and 2.38 ng/mL and 2.07 ng/mL
- AUClast [2, 11]: 202 ng·h/mL and 259 ng·h/mL and 212 ng·h/mL and 188 ng·h/mL and 269 ng·h/mL and 292 ng·h/mL and 298 ng·h/mL and 272 ng·h/mL
- Cmax [2, 11]: 167 ng/mL and 162 ng/mL and 78.4 ng/mL and 99.7 ng/mL and 242 ng/mL and 204 ng/mL and 184 ng/mL and 153 ng/mL
- Cmax/Dose (ng/mL)/(mg/kg) [2, 11]: 17.2 (ng/mL)/(mg/kg) and 16.4 (ng/mL)/(mg/kg) and 7.88 (ng/mL)/(mg/kg) and 10.2 (ng/mL)/(mg/kg) and 25.2 (ng/mL)/(mg/kg) and 21.1 (ng/mL)/(mg/kg) and 18.3 (ng/mL)/(mg/kg) and 15.7 (ng/mL)/(mg/kg)
- Tlast [2, 11]: 8.0 h (2×) and 24.0 h (6×)
- Tmax [2, 11]: 0.25 h (5×) and 0.50 h (3×)
- T½ [2, 11]: 2.44 h and 5.02 h and 3.62 h and 3.71 h and 2.02 h and 3.97 h and 5.51 h
- T½ (h), Mean All ([2]; male Wistar rats, mean): 3.76 h
- hygroscopicity (in words) [3]: slightly hygroscopic
- moisture gain ([3]; at 85% relative humidity (RH)): 0.5%
- Hygroscopy @ 85% RH ([3]; comparison table, Example 7): 0.5
- Loss on drying (LOD) of a sample [4]: < 0.03%
- Initial water content ([4]; comparison table, Example 7): <0.5
- solid-state stability [5]: good
- stability in buffer solutions ([5]; many buffer solutions, various pH values): good stability
- Decomposition temperature [6]: 207
- Known Multiple forms [7]: No
- particle size x10 [8]: 5.6±0.5 μm
- particle size x50 (mean particle size) [8]: 26.8±1.3 μm
- particle size x90 [8]: 77.3±3.3 μm
- stability in tablets [9]: very stable
